Assay results: US10780069B2, “Use of GC-1 in transplant related population” (University of Pittsburgh—Of the Commonwealth System of …, priority 2017, dated 2020)

Tested on: hMet-S45Y-β-catenin HCC model
Experiment: GC-1 diet in hMet-S45Y-β-catenin HCC model
Type: in vivo, mice
Settings: for increase in gene expression of deiodinase (RT-PCR, liver): p<0.001
Method: SBTT plasmids and HTVI have been described previously (Tao et al., Hepatology 2016, 64:1587-605). Briefly, […] pT3-EF5α-hMet-V5 and pT3-EF5α-S45Y-β-catenin-Myc combination along with the transposase in a ratio of 25:1 were diluted in 2 ml of normal saline (0.9% NaCl), filtered through 0.22 μm filter (Millipore), and injected into the lateral tail vein of 23 FVB mice that were around 6-week-old, in 5-7 seconds. These mice are referred henceforth as hMet-mutant-β-catenin mice. Four weeks after injection, hMet-mutant-β-catenin mice were randomized into two groups. One group was kept on basal diet (n=12) and another group was switched to GC-1-supplemented diet (5 mg/kg of diet, Medchem Express) (n=11). Animals on control diet were sacrificed at either 21 days (n=8) or 10 days (n=4) after initiation of diet. Similarly, animals on GC-1-diet were sacrificed at either 21 days (n=7) or 10 days (n=4) after initiation of the diet. The animals were given access to food and water ad libitum with a 12-hour light/dark daily cycle. One intraperitoneal injection of BrdU was performed on day 9 during 10 days of GC-1 or basal diet treatment and livers were harvested 24 hours later. Guidelines for the Care and Use of Laboratory Animals were followed.
Four micron formalin-fixed sections were deparaffinized in graded xylene and alcohol and rinsed in PBS. To block endogenous peroxidase activity, the sections were incubated in 3% hydrogen peroxide (Sigma). For antigen retrieval, slides were microwaved in citrate buffer followed by blocking with Superblock (ScyTek Laboratories, Logan, Utah) for 10 minutes. Sections were incubated overnight at 4° C. or 1 hour room temperature in the following antibodies: cyclin-D1 (Thermo-Scientific, Fremont, Calif.), Glutamine synthetase, Ki-67, Myc-tag and CD45 (Santa Cruz Biotechnology, Dallas, Tex.). Sections were then incubated with species-specific secondary horseradish peroxidase-conjugated antibody for 30 minutes at room temperature. Sections stained with antibodies were incubated with streptavidin-biotin and signal was detected with DAB. Cell death was evaluated in liver sections by terminal deoxynucleotidyl transferase dUTP nick end labeling (TUNEL) using manufacturer's instructions available with the kit (EMD-Millipore). BrdU was stained with mouse antibody (Becton Dickinson, Franklin Lakes, N.J.) as previously described (Alvarado et al., Gene Expr 2016, 17:19-34). Briefly, tissue sections were deparaffinized, exposed to 0.3% hydrogen peroxide in deionized water for 10 minutes to block endogenous peroxidase, treated with 2N HCl, incubated with trypsin 0.1% for 20 minutes and then with normal goat serum for 20 minutes at room temperature. Sections were then incubated overnight in cold room with anti-BrdU monoclonal antibody, followed by biotinylated goat anti-mouse IgG. DAB kit was then applied, and sections were counterstained with hematoxylin.
For quantification of Ki-67 immunohistochemistry (IHC), pictures were taken at 200× magnification from either tumor or non-tumor areas in the same slide. Each picture was separated into DAB staining channel and hematoxylin staining channel by Color Deconvolution using Imagej Fiji. To quantify the number of Ki-67 positive nuclei on each picture, the DAB staining on the DAB channel was highlighted with the threshold of 48 and then quantified with Analyze Particles. All particles of areas smaller than 100 pixels were excluded. To quantify the total number of nuclei on each picture the hematoxylin staining on the hematoxylin channel was highlighted with the threshold of 205 and then quantified with Analyze Particles with similar exclusion of small areas. The percentage of Ki-67-positive nuclei on each picture was calculated by dividing the number of particles counted from DAB channel by the number of particles counted from the hematoxylin channel. […]

**Q.** How did the “increase in gene expression of deiodinase (RT-PCR, liver)” value (10-days of GC-1-diet vs basal diet) turn out when `Cc1cc(OCC(=O)O)cc(C)c1Cc1ccc(O)c(C(C)C)c1` [GC-1, Sobetirome] was run?
**A.** around 10 fold

**Q.** And the “increase in gene expression of deiodinase (RT-PCR, liver)” value (21-days of GC-1-diet vs basal diet)?
**A.** around 40 fold

**Q.** What about the “cyclin-D1 and GS IHC of tumors” value (10 days GC-1 diet) of the same molecule?
**A.** continued to be positive

**Q.** What about the “tumor foci by H&E and Myc-tag staining” value (10 days GC-1 diet) of the same molecule?
**A.** Smaller and fewer tumor foci

**Q.** What about the gross liver appearance (10 days GC-1 diet vs basal diet) of the same molecule?
**A.** indistinguishable

**Q.** And the “liver weight to body weight ratio (LW/BW)” value (10 days GC-1 diet vs basal diet, p=0.0022)?
**A.** significant decrease

**Q.** And the “BrdU and Ki-67 IHC within tumor foci” value (10 days GC-1 vs basal diet)?
**A.** notable decrease

**Q.** And the “GS levels, WB” value (10 days GC-1 vs basal diet)?
**A.** modest decreases

**Q.** And the “Ki-67-positive cell numbers in non-tumor areas” value (10 days GC-1 vs basal diet)?
**A.** No differences

**Q.** What about the TUNEL-positive cells (10 days GC-1 vs basal diet) of the same molecule?
**A.** Comparable numbers

**Q.** And the “cyclin-D1 levels, WB” value (10 days GC-1 vs basal diet)?
**A.** marginal decreases

**Q.** What about the “number of CD45-positive cells (inflammation)” value (10 days GC-1 vs basal diet) of the same molecule?
**A.** No differences

**Q.** What about the “total and active β-catenin levels, WB” value (10 days GC-1 vs basal diet) of the same molecule?
**A.** modest decrease in the levels of total but not active β-catenin

**Q.** What about the “percentage of Ki-67-positive cells within tumor nodules” value (10 days GC-1 vs basal diet, p<0.01) of the same molecule?
**A.** significant decrease

**Q.** What about the “p-AKT levels, WB” value (10 days GC-1 vs control) of the same molecule?
**A.** did not have any effect

**Q.** What about the “p-ERK1 and p-ERK2, WB” value (10 days GC-1 vs control) of the same molecule?
**A.** dramatically decreased

**Q.** What about the “p-Met (Tyr 1234/1235), WB, two independent antibodies” value (10 days GC-1 vs control) of the same molecule?
**A.** profound decrease

**Q.** And the “p-STAT3, WB” value (10 days GC-1 vs control)?
**A.** profound decrease

**Q.** What about the “total AKT levels, WB” value (10 days GC-1 vs control) of the same molecule?
**A.** no change

**Q.** And the “total ERK levels, WB” value (10 days GC-1 vs control)?
**A.** unaffected

**Q.** And the “total Met levels, WB” value (10 days GC-1 vs control)?
**A.** modestly decreased

**Q.** What about the “total STAT3 levels, WB” value (10 days GC-1 vs control) of the same molecule?
**A.** overall reduced

**Q.** What about the “Myc-tag levels by Western blot” value (21 days GC-1 diet) of the same molecule?
**A.** modest decrease

**Q.** What about the “cyclin-D1 IHC of tumor nodules” value (21 days GC-1 diet) of the same molecule?
**A.** strongly positive

**Q.** And the gross liver appearance (21 days GC-1 diet)?
**A.** relatively smooth surface and smaller nodules

**Q.** And the “tumor nodules by H&E and Myc-tag IHC” value (21 days GC-1 diet)?
**A.** notably smaller tumor nodules

**Q.** What about the “liver weight to body weight ratio (LW/BW)” value (21 days GC-1 diet vs basal diet, p=0.0506) of the same molecule?
**A.** almost significant decrease

**Q.** And the “GS levels, WB” value (21 days GC-1 vs basal diet)?
**A.** modest decrease

**Q.** What about the “Ki-67-positive cells in non-tumor areas” value (21 days GC-1 vs basal diet) of the same molecule?
**A.** insignificant

**Q.** And the “cyclin-D1 levels, WB” value (21 days GC-1 vs basal diet)?
**A.** no change

**Q.** And the “p-AKT levels, WB” value (21 days GC-1 vs basal diet)?
**A.** comparable levels

**Q.** What about the “p-Met (Tyr 1234/1235), WB” value (21 days GC-1 vs basal diet) of the same molecule?
**A.** dramatic decrease

**Q.** And the “p-STAT3 levels, WB” value (21 days GC-1 vs basal diet)?
**A.** striking decrease

**Q.** What about the “percentage of Ki-67 positive tumor cells within nodules” value (21 days GC-1 vs basal diet) of the same molecule?
**A.** insignificant differences

**Q.** And the “total AKT levels, WB” value (21 days GC-1 vs basal diet)?
**A.** marginally increased

**Q.** And the “total Met levels, WB” value (21 days GC-1 vs basal diet)?
**A.** only marginally and variably decreased

**Q.** What about the “total STAT3 levels, WB” value (21 days GC-1 vs basal diet) of the same molecule?
**A.** relatively unaltered

**Q.** And the “total and active β-catenin levels, WB” value (21 days GC-1 vs basal diet)?
**A.** remained unaltered

**Q.** And the “total and p-ERK1 and total and p-ERK2, WB” value (21 days GC-1 vs basal diet)?
**A.** notably decreased

**Q.** And the “TUNEL-positive cells (cell death)” value (21 days, basal diet vs GC-1)?
**A.** More TUNEL-positive cells were evident in the basal diet group

**Q.** What about the “Glutamine synthetase (GS) IHC of tumors” value (21 days, both groups) of the same molecule?
**A.** uniformly and comparably positive
